Reference: publication PMC9596378, “Discovery and molecular basis of subtype-selective cyclophilin inhibitors” (Nature Chemical Biology, 2022)
Several values for one entry are separate records, joined by “and”; a condition that tells them apart may be missing. Equal values may be shown once. Read-outs that look alike come from different tables or passages of the source.

How the values were obtained:
CypD = CypD (Homo sapiens, UniProt P30405); experiment: Chymotrypsin coupled prolyl-isomerase assay
Sequence of CypD (P30405 45-207): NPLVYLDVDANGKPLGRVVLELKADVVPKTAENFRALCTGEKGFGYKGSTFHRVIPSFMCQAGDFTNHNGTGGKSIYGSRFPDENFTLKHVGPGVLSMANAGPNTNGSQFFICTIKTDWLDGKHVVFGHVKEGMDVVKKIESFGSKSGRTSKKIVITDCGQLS

CypB = target: T1, CypB (Homo sapiens, UniProt P23284); experiment: biochemical
T1 construct: PPIB (UniProtKB Entry P23284: residues 34–216); His6 with TEV site (2BT vector leader) (N); made in house; host or cells: E. coli BL21(DE3)
T1 sequence (P23284 34-216): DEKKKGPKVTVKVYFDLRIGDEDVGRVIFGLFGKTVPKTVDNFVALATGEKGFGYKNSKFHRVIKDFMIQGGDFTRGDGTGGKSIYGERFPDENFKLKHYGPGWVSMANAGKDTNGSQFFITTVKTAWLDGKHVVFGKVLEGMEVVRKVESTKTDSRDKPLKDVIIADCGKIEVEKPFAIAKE
Summary of the method: (§1)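 Recombinant cyclophilin (5 nM final) in 25 mM HEPES pH 7.3, 100 mM NaCl, 0.01% Triton X-100 was preincubated with compound at 2–3 °C. It was then coupled with 25 µM α-chymotrypsin and 5 µM Suc-AAPF-AMC (LiCl/TFE), and AMC fluorescence was followed for 330 s.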

Cyp40 = Cyp40 (Homo sapiens, UniProt Q08752); experiment: Chymotrypsin coupled prolyl-isomerase assay
Sequence of Cyp40 (Q08752 1-183): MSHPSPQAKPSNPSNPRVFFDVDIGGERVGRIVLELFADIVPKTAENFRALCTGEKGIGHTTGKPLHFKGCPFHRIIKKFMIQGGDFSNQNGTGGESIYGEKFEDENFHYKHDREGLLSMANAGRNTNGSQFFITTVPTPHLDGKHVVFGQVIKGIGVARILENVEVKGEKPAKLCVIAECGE
Summary of the method: as §1

NKTR = target: T2, NKTR (Homo sapiens, UniProt P30414); experiment: Chymotrypsin coupled prolyl-isomerase assay; type: biochemical
T2 construct: NKTR (UniProtKB Entry P30414: residues 7–179); host or cells: E. coli BL21(DE3)
T2 sequence (P30414 7-179): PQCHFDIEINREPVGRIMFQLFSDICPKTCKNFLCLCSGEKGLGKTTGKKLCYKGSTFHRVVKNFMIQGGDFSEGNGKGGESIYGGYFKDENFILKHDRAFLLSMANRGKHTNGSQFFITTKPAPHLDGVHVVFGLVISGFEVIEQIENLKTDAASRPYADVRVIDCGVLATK

PPIL1 = target: T3, PPIL1 (Homo sapiens, UniProt Q9Y3C6); experiment: Chymotrypsin coupled prolyl-isomerase assay; type: biochemical
T3 construct: PPIL1 (UniProtKB Entry Q9Y3C6: residues 1–166); made in house; host or cells: E. coli BL21(DE3)
T3 sequence (Q9Y3C6 1-166): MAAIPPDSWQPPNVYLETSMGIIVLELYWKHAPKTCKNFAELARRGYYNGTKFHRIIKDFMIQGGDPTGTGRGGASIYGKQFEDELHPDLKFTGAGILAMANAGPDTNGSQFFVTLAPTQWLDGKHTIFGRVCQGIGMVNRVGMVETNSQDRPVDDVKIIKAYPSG

PPWD1 = target: T4, PPWD1 (Homo sapiens, UniProt Q96BP3); experiment: Chymotrypsin coupled prolyl-isomerase assay; type: biochemical
T4 construct: PPWD1 (UniProtKB Entry Q96BP3: residues 473–646); host or cells: E. coli BL21(DE3)
T4 sequence (Q96BP3 473-646): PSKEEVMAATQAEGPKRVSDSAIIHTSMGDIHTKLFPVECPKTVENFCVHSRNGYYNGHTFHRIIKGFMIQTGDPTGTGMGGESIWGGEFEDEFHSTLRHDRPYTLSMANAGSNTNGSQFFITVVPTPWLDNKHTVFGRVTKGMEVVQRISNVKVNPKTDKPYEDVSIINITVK

Structure (SMILES): NCCOCCNC(=O)[C@@H]1CCNC(=O)/C=C/C(=O)N2CCC[C@](Cc3ccccc3)(C2)C(=O)N[C@@H](Cc2ccc(-c3ccc(C(CC(=O)O)CC(=O)O)cc3)cc2)C(=O)NCc2ccccc2CC(=O)N1 [Compound B53]
- IC50 (CypD): 0.057 µM
- IC50 (CypD; IC50 CypD, Independent replicate 1, mean±SEM of 3 technical replicates): 0.04 ± 0.01 µM
- IC50 (CypD; IC50 CypD, Independent replicate 2): 0.05 ± 0.02 µM
- IC50 (CypD; IC50 CypD, Independent replicate 3): 0.06 ± 0.02 µM
- IC50 (CypD; IC50 CypD, Independent replicate 4): 0.06 ± 0.03 µM
- selectivity for CypD against the remaining six cyclophilins (CypD; prolyl-isomerase IC50): > 900 fold
- selectivity for CypD over CypA (CypD; prolyl-isomerase IC50): > 100 fold and 100 fold
- selectivity for CypD over CypA and PPIL1 (CypD; prolyl-isomerase IC50): 60- to 900 fold
- selectivity for CypD over CypE and CypB (CypD; prolyl-isomerase IC50): 15- to 30 fold
- IC50 (CypB; CypB (comparator for CypB E121S), read-out: Mutant Cyclophilin Prolyl Isomerase Inhibition IC50 Values, CypB): 0.5 µM
- IC50 (CypB; Independent replicate 2, read-out: IC50 CypB): 1.6 ± 0.6 µM
- IC50 (CypB; Independent replicate 3, read-out: IC50 CypB): 1.1 ± 0.5 µM
- IC50 (CypB; Independent replicate 4, read-out: IC50 CypB): 1.3 ± 0.8 µM
- IC50 (CypB; prolyl-isomerase inhibition, 5 nM cyclophilin, read-out: IC50 CypB): 1.1 µM
- IC50 (CypB; prolyl-isomerase inhibition, read-out: IC50 CypB): 1.1 µM
- IC50 (CypB; wild-type CypB, read-out: Wild-Type Cyclophilin Prolyl Isomerase Inhibition IC50 Values, CypB): 1.1 µM
- IC50 (Cyp40; IC50 Cyp40, Independent replicate 1): > 50 µM
- IC50 (Cyp40; IC50 Cyp40, Independent replicate 2): > 50 µM
- IC50 (Cyp40; IC50 Cyp40, Independent replicate 3): > 50 µM
- IC50 (Cyp40; IC50 Cyp40, Independent replicate 4): > 50 µM
- IC50 (Cyp40; IC50 Cyp40, prolyl-isomerase inhibition, 5 nM cyclophilin): > 50 µM
- IC50 (Cyp40; Wild-Type Cyclophilin Prolyl Isomerase Inhibition IC50 Values, Cyp40, wild-type Cyp40): > 50 µM
- IC50 (NKTR; Independent replicate 1, read-out: IC50 NKTR): > 50 µM
- IC50 (NKTR; Independent replicate 2, read-out: IC50 NKTR): > 50 µM
- IC50 (NKTR; Independent replicate 3, read-out: IC50 NKTR): > 50 µM
- IC50 (NKTR; Independent replicate 4, read-out: IC50 NKTR): > 50 µM
- IC50 (NKTR; prolyl-isomerase inhibition, 5 nM cyclophilin, read-out: IC50 NKTR): > 50 µM
- IC50 (NKTR; wild-type NKTR, read-out: Wild-Type Cyclophilin Prolyl Isomerase Inhibition IC50 Values, NKTR): > 50 µM
- IC50 (PPIL1; Independent replicate 1, read-out: IC50 PPIL1): ~30 µM
- IC50 (PPIL1; Independent replicate 2, read-out: IC50 PPIL1): > 50 µM
- IC50 (PPIL1; Independent replicate 3, read-out: IC50 PPIL1): > 50 µM
- IC50 (PPIL1; Independent replicate 4, read-out: IC50 PPIL1): > 50 µM
- IC50 (PPIL1; prolyl-isomerase inhibition, 5 nM cyclophilin, read-out: IC50 PPIL1): > 50 µM
- IC50 (PPIL1; wild-type PPIL1, read-out: Wild-Type Cyclophilin Prolyl Isomerase Inhibition IC50 Values, PPIL1): > 50 µM
- IC50 (PPWD1; Independent replicate 1, read-out: IC50 PPWD1): > 50 µM
- IC50 (PPWD1; Independent replicate 2, read-out: IC50 PPWD1): > 50 µM
- IC50 (PPWD1; Independent replicate 3, read-out: IC50 PPWD1): > 50 µM
- IC50 (PPWD1; Independent replicate 4, read-out: IC50 PPWD1): > 50 µM
- IC50 (PPWD1; prolyl-isomerase inhibition, 5 nM cyclophilin, read-out: IC50 PPWD1): > 50 µM
- IC50 (PPWD1; wild-type PPWD1, read-out: Wild-Type Cyclophilin Prolyl Isomerase Inhibition IC50 Values, PPWD1): > 50 µM
